Experimental data from patent US11840686B2, “Modulation of prekallikrein (PKK) expression” (Ionis Pharmaceuticals, Inc., priority 2013, dated 2023).
Strand notation (5' to 3'): a small letter for the sugar, then the base; units joined by * are phosphorothioate-linked, units joined directly phosphodiester-linked; [ ] holds rarer units or linkages, { } end groups; capitals alone tell only the bases. e = 2'-O-(2-methoxyethyl) (MOE); [5mC] = 5-methylcytosine; d = 2'-deoxy (DNA)

Tested on: human PKK mRNA
Assay: Antisense inhibition of human PKK mRNA in HepaRG cells, 5,000 nM (Example 2)
Assay type: cell-based
Method in brief: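 Percent inhibition of PKK mRNA is reported relative to untreated cells, after adjustment for total RNA by RIBOGREEN. Gapmers of 16–20 nucleosides with 2′-MOE wings were delivered at 5,000 nM by electroporation into HepaRG cells and left for roughly 24 hours before RNA isolation.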

[1] = HepaRG cells, electroporation, 5,000 nM antisense oligonucleotide, approx. 24 hours, primer probe set RTS3454, relative to untreated control cells, Table 12
[2] = Table 8, HepaRG cells, electroporation with 5,000 nM antisense oligonucleotide, approx. 24 hours, PKK mRNA by RT-PCR (RTS3454), relative to untreated control cells
[3] = HepaRG cells, electroporation, 5,000 nM antisense oligonucleotide, approx. 24 hours, primer probe set RTS3454, relative to untreated control cells, Table 11
[4] = human PKK mRNA, HepaRG cells, 5-10-5 motif oligonucleotides targeting SEQ ID NO: 1 and 10
[5] = Table 9 experiment, HepaRG cells, 20,000 cells per well, electroporation with 5,000 nM antisense oligonucleotide, approx. 24 hours, PKK mRNA by RT-PCR (RTS3454), relative to untreated control cells
[6] = Table 10 experiment, HepaRG cells, 20,000 cells per well, electroporation with 5,000 nM antisense oligonucleotide, approx. 24 hours, PKK mRNA by RT-PCR (RTS3454), relative to untreated control cells
[7] = HepaRG cells, electroporation with 5,000 nM antisense oligonucleotide, approximately 24 hours, PKK mRNA by RT-PCR (RTS3454), relative to untreated control cells, Table 6 experiment
[8] = Table 7, HepaRG cells, electroporation with 5,000 nM antisense oligonucleotide, approx. 24 hours, PKK mRNA by RT-PCR (RTS3454), relative to untreated control cells
[9] = HepaRG cells, 5,000 nM antisense oligonucleotide, 5-10-5 gapmers, Table 17
[10] = Table 13, human PKK mRNA in HepaRG cells, 5-10-5 gapmers

546421 (eT*e[5mC]*eA*eA*eG*d[5mC]*dT*dG*dT*dT*d[5mC]*dT*dA*dA*dT*eG*eT*eG*eG*e[5mC]; antisense) [compound 546421]
% inhibition [1]: 71%

546266 (eA*e[5mC]*eA*eG*eT*d[5mC]*dT*dT*d[5mC]*dT*dG*dG*dG*dA*dG*eT*eA*eA*eA*eG; antisense) [compound 546266]
% inhibition [2]: 63%

547511 (antisense eG*eA*eT*eG*eA*dG*dG*dA*d[5mC]*d[5mC]*d[5mC]*d[5mC]*d[5mC]*d[5mC]*dA*eG*eG*e[5mC]*eT*e[5mC]) [compound 547511]
% inhibition [3]: 53%

546419 (eT*eT*e[5mC]*eT*eA*dA*dT*dG*dT*dG*dG*d[5mC]*dA*d[5mC]*dT*eG*e[5mC]*eA*eG*eG; antisense) [compound 546419]
% inhibition [1]: 65%

546892 (eA*e[5mC]*eT*eG*eT*d[5mC]*d[5mC]*dT*dA*dT*dG*dT*d[5mC]*dA*d[5mC]*eT*eG*eT*eA*e[5mC]; antisense) [compound 546892]
% inhibition [4]: 82%

546319 (antisense e[5mC]*eA*eG*eT*eG*dT*dA*dA*dT*dT*d[5mC]*dA*dA*dA*dG*eG*eA*eG*e[5mC]*e[5mC]) [compound 546319]
% inhibition [5]: 50%
% inhibition [6]: 61%

547658 (e[5mC]*eG*eT*eA*e[5mC]*dT*dA*dG*dT*dT*dT*d[5mC]*d[5mC]*dT*dA*eT*eA*eA*e[5mC]*eT; antisense) [compound 547658]
% inhibition [4]: 68%

547269 (eA*eA*eT*eG*eA*dA*d[5mC]*dG*dG*dT*d[5mC]*dT*dT*d[5mC]*dA*eA*eG*e[5mC]*eT*eG; antisense) [compound 547269]
% inhibition (HepaRG cells, electroporation with 5,000 nM antisense oligonucleotide, approximately 24 hours, PKK mRNA by RT-PCR (RTS3454), relative to untreated control cells, Table 5 experiment): 56%

547333 (antisense eT*eG*eT*e[5mC]*eT*d[5mC]*dG*dA*dT*dG*dG*d[5mC]*dA*dA*dG*e[5mC]*eA*e[5mC]*eT*eT) [compound 547333]
% inhibition [7]: 76%

546500 (eT*eT*e[5mC]*e[5mC]*eA*dT*dG*d[5mC]*dA*dT*dA*d[5mC]*dT*d[5mC]*dG*e[5mC]*e[5mC]*eT*eT*eT; antisense) [compound 546500]
% inhibition [1]: 46%

547418 (e[5mC]*eA*e[5mC]*eT*eT*dA*d[5mC]*dA*d[5mC]*dT*dT*d[5mC]*dT*d[5mC]*dT*eT*e[5mC]*e[5mC]*eT*eT; antisense) [compound 547418]
% inhibition [2]: 0%

546212 (antisense eA*eG*eA*eT*eG*d[5mC]*dT*dG*dG*dA*dA*dG*dA*dT*dG*eT*eT*e[5mC]*eA*eT) [compound 546212]
% inhibition [7]: 48%

547348 (antisense eA*e[5mC]*eA*e[5mC]*eT*dG*d[5mC]*dT*dA*dA*d[5mC]*d[5mC]*dT*dT*dA*eG*eA*e[5mC]*eA*e[5mC]) [compound 547348]
% inhibition [7]: 83%

546249 (e[5mC]*eT*eT*e[5mC]*eT*d[5mC]*d[5mC]*dT*d[5mC]*d[5mC]*dA*dA*dA*dG*dT*e[5mC]*eA*eA*e[5mC]*eT; antisense) [compound 546249]
% inhibition [8]: 68%

546303 (antisense eT*eT*eT*eG*eT*dG*dA*dG*dA*dA*dA*dG*dG*dT*dG*eT*eA*eT*e[5mC]*eT) [compound 546303]
% inhibition [2]: 77%

547010 (eG*eA*eA*eT*eT*dG*dG*dT*dG*dG*dT*dG*dG*dG*dA*eT*eT*eG*eG*eT; antisense) [compound 547010]
% inhibition [9]: 39%

547431 (e[5mC]*eA*eG*eT*eG*dT*dT*dA*d[5mC]*dA*d[5mC]*dA*dA*dT*d[5mC]*eT*e[5mC]*eA*eA*eA; antisense) [compound 547431]
% inhibition [2]: 67%

547039 (eT*e[5mC]*eT*e[5mC]*eT*dA*dT*dA*d[5mC]*dA*dG*d[5mC]*dT*dG*dG*eG*e[5mC]*eA*e[5mC]*eA; antisense) [compound 547039]
% inhibition [9]: 0%

546393 (eT*e[5mC]*eT*e[5mC]*eA*dG*dT*dT*dG*d[5mC]*dG*dA*d[5mC]*d[5mC]*dT*e[5mC]*eG*e[5mC]*eA*eT; antisense) [compound 546393]
% inhibition [3]: 77%

547739 (eA*eT*eT*eG*eG*dT*dG*dG*dT*dG*dG*dG*dA*dT*dT*eG*eG*eT*eG*e[5mC]; antisense) [compound 547739]
% inhibition [9]: 12%

546883 (e[5mC]*eT*eA*eG*eT*dT*dT*d[5mC]*d[5mC]*dT*dA*dT*dA*dA*d[5mC]*eA*eG*eT*eA*eT; antisense) [compound 546883]
% inhibition (human PKK mRNA in HepaRG cells, 5-10-5 gapmers, Table 14): 19%

546220 (antisense eT*eA*eG*eG*eT*dG*d[5mC]*dA*dG*dA*dT*dG*dG*dT*d[5mC]*e[5mC]*eG*eA*e[5mC]*eA) [compound 546220]
% inhibition [8]: 71%

546999 (eG*e[5mC]*eA*eG*e[5mC]*dT*d[5mC]*dA*d[5mC]*dA*d[5mC]*d[5mC]*d[5mC]*dA*dA*eA*eA*eA*eG*e[5mC]; antisense) [compound 546999]
% inhibition [9]: 29%

547403 (eA*eT*eT*eT*eT*dA*dG*dA*dA*dT*dG*dG*d[5mC]*dA*dG*eG*eG*eT*eT*e[5mC]; antisense) [compound 547403]
% inhibition [8]: 10%

547355 (e[5mC]*eA*eA*eT*eT*dG*dT*dT*d[5mC]*d[5mC]*dG*dG*dT*dA*d[5mC]*eT*e[5mC]*eT*eG*e[5mC]; antisense) [compound 547355]
% inhibition [7]: 77%

547667 (eT*eA*eT*e[5mC]*eA*d[5mC]*dT*dG*dT*dA*d[5mC]*d[5mC]*dT*dA*dT*eA*eA*e[5mC]*eT*eA; antisense) [compound 547667]
% inhibition [4]: 55%

547502 (antisense eT*e[5mC]*eA*eG*eG*dT*dT*dG*dT*dA*dA*dA*dA*dA*dT*eT*eG*e[5mC]*e[5mC]*eT) [compound 547502]
% inhibition [3]: 64%

546406 (eT*eG*eT*e[5mC]*e[5mC]*dT*dG*dT*d[5mC]*dA*dA*d[5mC]*dA*dT*dA*eT*eT*e[5mC]*e[5mC]*eA; antisense) [compound 546406]
% inhibition [1]: 80%

547758 (antisense e[5mC]*e[5mC]*eA*eA*eG*dT*dA*dG*dT*dG*d[5mC]*dA*dA*dG*dG*e[5mC]*eA*eT*eG*eT) [compound 547758]
% inhibition [9]: 24%

547532 (antisense e[5mC]*eT*eG*e[5mC]*e[5mC]*dA*dA*d[5mC]*dA*dG*dT*dT*dT*d[5mC]*dA*eA*e[5mC]*eT*eT*eT) [compound 547532]
% inhibition [1]: 65%

548741 (DNA e[5mC]*eT*eG*eT*dA*d[5mC]*dT*dA*dG*dT*dT*dT*d[5mC]*e[5mC]*eT*eA*eT; antisense) [compound 548741]
% inhibition (human PKK mRNA, HepaRG cells, 5,000 nM antisense oligonucleotide, Table 18): 69%

546327 (antisense eG*eG*eT*eT*eA*d[5mC]*d[5mC]*d[5mC]*dA*dA*d[5mC]*dA*dG*dT*dT*eG*eG*eT*eA*eT) [compound 546327]
% inhibition [5]: 95%
% inhibition [6]: 84%

547748 (eG*eG*eT*eT*eG*dG*dT*dG*dG*d[5mC]*dG*dG*dG*dA*dT*e[5mC]*eG*eG*eT*eG; antisense) [compound 547748]
% inhibition [9]: 78%

546804 (eA*e[5mC]*eA*eT*eG*dA*d[5mC]*dT*d[5mC]*d[5mC]*dA*dG*dT*dG*dA*eT*eG*eG*eA*eT; antisense) [compound 546804]
% inhibition [10]: 57%

547683 (antisense eA*e[5mC]*eT*eA*eT*dA*dT*d[5mC]*dA*d[5mC]*dT*dG*dT*d[5mC]*d[5mC]*eT*eA*eT*eA*eA) [compound 547683]
% inhibition (HepaRG cells, 5,000 nM antisense oligonucleotide, 5-10-5 gapmers, Table 16): 33%

547744 (eT*eG*eG*eT*eG*dG*dT*dG*dG*dG*dA*dT*dT*dG*dG*eT*eG*eG*e[5mC]*eG; antisense) [compound 547744]
% inhibition [9]: 65%

546367 (antisense eA*eA*eA*eA*eA*dT*dT*dG*d[5mC]*d[5mC]*dT*dA*dG*dA*d[5mC]*eT*e[5mC]*eT*eG*eG) [compound 546367]
% inhibition [3]: 61%

547430 (e[5mC]*eA*eA*eT*e[5mC]*dT*d[5mC]*dA*dA*dA*dG*dA*dG*dT*dA*eA*e[5mC]*e[5mC]*eA*eG; antisense) [compound 547430]
% inhibition [2]: 70%

546375 (antisense eG*eA*e[5mC]*e[5mC]*e[5mC]*d[5mC]*d[5mC]*d[5mC]*dA*dG*dG*d[5mC]*dT*d[5mC]*dA*eG*eA*eA*eT*eT) [compound 546375]
% inhibition [3]: 48%

547583 (e[5mC]*eA*e[5mC]*eT*eG*dT*d[5mC]*d[5mC]*dT*dA*dT*dA*dT*d[5mC]*dA*e[5mC]*eT*eG*eT*e[5mC]; antisense) [compound 547583]
% inhibition [10]: 80%

547774 (antisense eG*eA*eG*eA*e[5mC]*dA*dG*dT*dT*dT*dG*dG*d[5mC]*dA*dA*eG*e[5mC]*eT*eA*e[5mC]) [compound 547774]
% inhibition [9]: 46%

546322 (antisense e[5mC]*eT*eT*eG*eT*dG*dT*d[5mC]*dA*d[5mC]*d[5mC]*dT*dT*dT*dG*eG*eA*eA*eG*eG) [compound 546322]
% inhibition [5]: 74%
% inhibition [6]: 68%
